Data reported in patent US12433935B2, “Producing method of mesenchymal stem cell for prevention or treatment of brain neuronal disease including ghrelin treatment and use thereof” (Samsung Life Public Welfare Foundation, priority 2020, dated 2025).
No end group written: not given here.

What was measured:
AgRP gene = experiment: AgRP expression in mesenchymal stem cells (WJ-MSC) treated with ghrelin, real-time PCR; assay type: cell-based, human
Method: An experiment was conducted to identify the effect on the expression of AgRP (Agouti related peptide) known as a therapeutic agent for brain neuronal disease such as Alzheimer's disease in mesenchymal stem cells when the mesenchymal stem cells were directly treated with ghrelin. WJ-MSCs were thawed in a 175T flask and stabilized for 3 days, and then cultured for 2 days in MEM alpha medium (Gibco, 12571063) to which 10% FBS (Biowest, S1480) and 5 μg/ml gentamicin were added. Thereafter, the WJ-MSCs were seeded, at 0.8×10^6, on a 6-well plate under 10% FBS conditions and incubated for 1 day. After the incubation, the WJ-MSCs were treated with human recombinant ghrelin (Phoenix Pharmaneuticals, 031-30) at concentrations of 0, 10 pM, 1 nM, and 100 nM, respectively, under FBS-free conditions. Cells were collected after 6 and 12 hours, respectively. The collected WJ-MSC was treated with Trizol, and mRNA was extracted therefrom. Then, real-time PCR analysis thereof was performed using human AgRP Primer. The results of treatment of the cells with human recombinant ghrelin at various concentrations for 6 hours are shown in FIG. 2A. The results of treatment of the cells with human recombinant ghrelin at various concentrations for 12 hours are shown in FIG. 2B.

mouse AgRP gene = experiment: AgRP expression in mHYPOE-N46 mouse hypothalamus cell line treated with ghrelin, real-time PCR; assay type: cell-based; conditions: mHYPOE-N46 cells, 0, 10 pM, 1 nM, 100 nM, 6 or 12 hours, primers mAgRP1 and mAgRP2 (FIG. 3A-3D)
Method: An experiment was conducted to identify the change in AgRP expression level when the mouse hypothalamus cell line was directly treated with the mouse/rat recombinant ghrelin. Specifically, mHYPOE-N46 mouse hypothalamus cell line was thawed in a 175T flask and stabilized for 3 days, and then was incubated for two days in DMEM high glucose medium (Gibco, 11965-092) supplemented with 10% FBS (Biowest, 51480) and penicillin-streptomycin (Gibco, 15140122). Under 10% FBS conditions, the cells are seeded, at 0.8×10^6, in a 6 well plate and incubated for 1 day. After the incubation, the cells were treated with mouse/rat recombinant ghrelin (Phoenix Pharmaneuticals, 031-31) at concentrations of 0, 10 pM, 1 nM, and 100 nM, respectively, in FBS-free conditions. Cells were collected after 6 and 12 hours, respectively. The collected cells were treated with Trizol. mRNA was extracted therefrom. Then, real-time PCR analysis thereof was performed using two mouse AgRP primer pairs. […] After direct treatment of the cells with ghrelin for 6 or 12 hours, the expression of mAgRP was analyzed. In addition, the results of mouse AgRP expression analysis according to ghrelin treatment time using primer mAgRP2 are shown in FIG. 3C and FIG. 3D.

In the case of “human recombinant ghrelin: human recombinant ghrelin (Phoenix Pharmaneuticals, 031-30); hormone that increases appetite (GSSFLSPEHQRVQQRKESKKPPAKLQPR; ends and bridges not checked; UniProt Q9UBU3 24-51, looked up)”, the “expression of AgRP gene” value (AgRP gene; WJ-MSC, 0, 10 pM, 1 nM, 100 nM, FBS-free, 6 hours and 12 hours (FIG. 2A, 2B)) is reported as “increased based on the treatment concentration” and the “expression of AgRP” value (AgRP gene; WJ-MSC, 100 nM concentration, 6 and 12 hours) is reported as “significantly increased”.

In the case of “mouse ghrelin: mouse/rat recombinant ghrelin (Phoenix Pharmaneuticals, 031-31) (GSSFLSPEHQKAQQRKESKKPPAKLQPR; ends and bridges not checked; UniProt Q9EQX0 24-51, looked up)”, the “expression of mouse AgRP gene” value (mouse AgRP gene) is reported as “increased according to the concentration of ghrelin”.
